Assay results as given in paper PMC5634495 (Scientific Reports, 2017).

Legend:
α4β2 nAChR = α4β2 nAChR (Homo sapiens, UniProt P17787+P43681); assay: cell-based
[1] = tested on: nAChR-mediated pharyngeal pumping in C. elegans (nAChR EAT-2); parameters: species or system Caenorhabditis elegans; settings: in vivo
[2] = tested on: locomotor activity of mice; settings: mouse, in vivo
[3] = molecular target: T1, acetylcholine binding protein derived from Lymnaea stagnalis (L-AChBP) (Lymnaea stagnalis, UniProt P58154 20-229); assay: SPR; settings: both partners purified
T1 construct: also called Synthetic Lymnaea stagnalis AChBP
T1 sequence (P58154 20-229): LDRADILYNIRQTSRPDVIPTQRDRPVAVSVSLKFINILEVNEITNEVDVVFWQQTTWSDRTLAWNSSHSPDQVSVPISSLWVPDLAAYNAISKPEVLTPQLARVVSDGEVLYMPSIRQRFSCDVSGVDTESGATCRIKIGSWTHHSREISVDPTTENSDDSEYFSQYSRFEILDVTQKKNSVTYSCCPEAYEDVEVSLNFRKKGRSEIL

Chain of α4β2 nAChR (P43681 29-627 limits assumed): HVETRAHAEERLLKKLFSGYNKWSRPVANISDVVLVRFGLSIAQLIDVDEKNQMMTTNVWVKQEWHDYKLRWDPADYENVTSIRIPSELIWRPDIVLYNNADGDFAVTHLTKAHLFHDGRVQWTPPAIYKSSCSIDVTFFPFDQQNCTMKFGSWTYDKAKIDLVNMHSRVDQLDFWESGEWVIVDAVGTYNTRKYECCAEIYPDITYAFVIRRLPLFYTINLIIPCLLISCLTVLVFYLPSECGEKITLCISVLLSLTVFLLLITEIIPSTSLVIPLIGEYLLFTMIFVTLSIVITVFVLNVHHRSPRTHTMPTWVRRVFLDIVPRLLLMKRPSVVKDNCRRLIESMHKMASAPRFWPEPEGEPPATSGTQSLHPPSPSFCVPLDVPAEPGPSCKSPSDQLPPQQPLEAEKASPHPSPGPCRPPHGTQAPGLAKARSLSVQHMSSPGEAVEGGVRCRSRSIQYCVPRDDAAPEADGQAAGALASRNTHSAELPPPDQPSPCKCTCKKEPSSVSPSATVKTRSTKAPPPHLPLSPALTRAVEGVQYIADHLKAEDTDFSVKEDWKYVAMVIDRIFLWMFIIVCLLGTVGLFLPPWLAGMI
Chain of α4β2 nAChR (P17787 26-502 limits assumed): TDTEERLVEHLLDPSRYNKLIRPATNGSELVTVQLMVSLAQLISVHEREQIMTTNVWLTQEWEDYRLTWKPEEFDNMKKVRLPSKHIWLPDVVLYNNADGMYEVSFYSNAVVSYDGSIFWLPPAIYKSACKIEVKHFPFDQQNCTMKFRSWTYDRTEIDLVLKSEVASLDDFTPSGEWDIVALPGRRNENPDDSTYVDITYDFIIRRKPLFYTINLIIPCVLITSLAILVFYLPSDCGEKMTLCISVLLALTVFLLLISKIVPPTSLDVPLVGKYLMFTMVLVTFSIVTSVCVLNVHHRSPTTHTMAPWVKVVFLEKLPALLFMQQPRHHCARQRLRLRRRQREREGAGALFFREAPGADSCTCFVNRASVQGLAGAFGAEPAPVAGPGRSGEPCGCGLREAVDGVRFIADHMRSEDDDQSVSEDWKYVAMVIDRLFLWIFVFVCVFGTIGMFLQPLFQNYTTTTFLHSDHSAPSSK

Molecule	IC50 (α4β2 nAChR) [µM]	average pharyngeal pumping frequency (in words) [1]	worms in which pharyngeal pumping was absent [1]	locomotor activity in novel-environment behaviour test (in words) [2]	binding result [3]
CC[C@H](C)[C@H](NC(=O)[C@H](CC(=O)O)NC(=O)[C@H](CS)NC(=O)[C@H](CO)NC(=O)[C@@H](NC(=O)CNC(=O)[C@H](CC(C)C)NC(=O)[C@H](CCCNC(=N)N)NC(=O)[C@H](C)NC(=O)[C@H](CC(N)=O)NC(=O)[C@H](CCC(=O)O)NC(=O)[C@@H]1CCCN1C(=O)[C@H](CCSC)NC(=O)[C@H](Cc1c[nH]c2ccccc12)NC(=O)[C@@H](NC(=O)[C@@H](NC(=O)[C@@H](N)Cc1ccc(O)cc1)[C@@H](C)O)[C@@H](C)CC)[C@@H](C)O)C(=O)N[C@@H](Cc1ccccc1)C(=O)N[C@H](C(=O)N[C@@H](CC(N)=O)C(=O)N[C@@H](CO)C(=O)N[C@@H](CCCNC(=N)N)C(=O)NCC(=O)N[C@@H](CCCCN)C(=O)N[C@@H](CCCNC(=N)N)C(=O)N[C@@H](C)C(=O)N[C@@H](CO)C(=O)N[C@@H](CCCCN)C(=O)NCC(=O)O)[C@@H](C)O [RV-183A]	465 to 2620	significantly reduced	six out of seven	increased locomotor activity	
CC[C@H](C)[C@H](NC(=O)[C@H](CC(=O)O)NC(=O)[C@H](CS)NC(=O)[C@H](CO)NC(=O)[C@@H](NC(=O)CNC(=O)[C@H](CC(C)C)NC(=O)[C@H](CCCNC(=N)N)NC(=O)[C@@H]1CCCN1C(=O)[C@H](CC(N)=O)NC(=O)[C@H](CCC(=O)O)NC(=O)[C@@H]1CCCN1C(=O)[C@H](CCSC)NC(=O)[C@H](Cc1c[nH]c2ccccc12)NC(=O)[C@@H](NC(=O)[C@@H](NC(=O)[C@@H](N)Cc1ccc(O)cc1)[C@@H](C)O)[C@@H](C)CC)[C@@H](C)O)C(=O)N[C@@H](Cc1ccccc1)C(=O)N[C@H](C(=O)N[C@@H](CC(N)=O)C(=O)N[C@@H](CO)C(=O)N[C@@H](CCCNC(=N)N)C(=O)NCC(=O)N[C@@H](CCCCN)C(=O)N[C@@H](CCCNC(=N)N)C(=O)N[C@@H](C)C(=O)N[C@@H](CO)C(=O)N[C@@H](CCCCN)C(=O)NCC(=O)O)[C@@H](C)O [RV-183P]	185 to 314			increased locomotor activity	
GSEPKWYRTKDRASPGSNFTITLMGRCNI [Scrambled, reference compound]				No difference	
YTIWMPENLRLGTSCDIFTNSRGKRASKG [RV-183L]					binds
YTIWMPENPRLGTSCDIFTNSRGKRASKG [RV-183P]					binds
